From US9066922B2, “Pharmaceutical composition for the treatment or prevention of diseases involving obesity, diabetes, metabolic syndrome, neuro-degenerative diseases and mitochondria dysfunction diseases” (MD BIOALPHA CO., LTD., priority 2005, dated 2015) come the findings set out here.

For one data set, the system named is AMPK. Put plainly: Determination of AMPK activation in C2C12 myoblast cells (SAMS peptide, [γ-32P]ATP). Format: cell-based. The conditions noted are these: differentiated C2C12 myoblast cells, 5 μg/ml, compared with control (DMSO 0.5% = 1). On the procedure: Myoblast cells, C2C12, were cultured in DMEM containing 10% bovine calf serum. When a cell density reached a range of about 85% to 90%, the culture medium was replaced with a medium containing 1% bovine calf serum to induce differentiation of cells. The thus-differentiated myoblast cells were treated with samples synthesized in Examples 1 through 29 at a concentration of 5 μg/ml, and compared with a control group. Enzymatic activity of AMPK was determined as follows. Firstly, C2C12 cells were lysed to obtain protein extracts and then ammonium sulfate was added to a final concentration of 30%, thereby precipitating proteins. Protein precipitates were dissolved in a buffer (62.5 mM Hepes, pH 7.2, 62.5 mM NaCl, 62.5 mM NaF, 1.25 mM Na pyrophosphate, 1.25 mM EDTA, 1 mM DTT, 0.1 mM PMSF, and 200 μM AMP). Thereafter, 200 μM SAMS peptide (HMRSAMSGLHLVKRR: the underlined serine residue is a phosphorylation site, as an AMPK phosphorylation site of acetyl-CoA carboxylase) and [γ-32P]ATP were added thereto and reactants were reacted for 10 minutes at 30° C. This was followed by spotting of the resulting reaction solution on p81 phosphocellulose paper. The p81 paper was washed with a 3% phosphoric acid solution and radioactivity thereof was measured. For each reaction condition, reactions involving no SAMS peptide were also conducted and basic values were subtracted from the thus-observed values.

Data set [1] concerns C57BL/6JL Lep ob/Lep ob mice. Nature of the data set: Weight loss effects in obese mice (ob/ob): body weight. The data set is classed as in vivo. Conditions: 100 mg/kg for 26 days; for change in vivo at 100 mg/kg: Mus musculus, 624 h, read-out: Increase in BW. The source says:
(§1) 10-week-old C57BL/6JL Lep ob/Lep ob male mice having obesity characteristics and predisposition were purchased from Daehan Biolink Co., Ltd. (Chungchongbuk-do, Korea). Animals were raised in a breeding room maintained at a temperature of 23 C, 55% humidity, illumination of 300 to 500 lux, a 12-h light/dark (L/D) cycle, and ventilation of 10 to 18 times/hr. Animals were fed ad libitum pellets of Purina Rodent Laboratory Chow 5001 (purchased from Purina Mills Inc., St. Louis, Mo., USA) as a solid feed for experimental animals and tap water as drinking water. Mice were allowed to acclimate to new environment of the breeding room for two weeks and were then administered some pyrano-o-naphthoquinone and furano-o-naphthoquinone derivatives synthesized according to the present invention at doses of 100 mg/kg for 26 days. Observation was made on changes in body weight, blood glucose and dietary intake, with respect to a time course of administration. After administration was complete, Computed Tomography (CT) was performed to confirm changes in adipose tissue distribution of animals, changes in fat distribution of tissues in various organs, changes in sizes of adipocytes, and changes in glucose, lipid and enzyme levels in blood and liver.

The test system of data set [2] is C57BL/6JL Lep ob/Lep ob mice. Put plainly: Blood lipid, glucose and enzyme levels in obese mice (ob/ob). The data set is classed as in vivo. Also on record: unit not given here. Conditions: 100 mg/kg for 26 days.
Source text: as §1

Data set [3] concerns Sprague-Dawley rats. Nature of the data set: Acute toxicity test, peritoneal administration. Format: in vivo. Conditions: peritoneal, 50, 100 and 200 mg/kg, observed for 2 weeks, vs control group.
In data set [4] the test system is Sprague-Dawley rats. Put plainly: Acute toxicity test, oral administration. The data set is classed as in vivo. The conditions noted are these: oral, 50, 100 and 200 mg/kg, observed for 2 weeks, vs control group.

`CC1CC2=C(O1)c1ccccc1C(=O)C2=O` (stereo not drawn) [Compound 5] came in with an AMPK fold with AMPK of 1.3 fold. Further, in data set [1], the “Final BW” value is listed as 36.1 g and the change in vivo at 100 mg/kg was -39.5%. Moreover, in data set [2], the Cholesterol turned out to be 117, the GOT came out at 38, the GPT stood at 29 and the Glucose is listed as 112. This molecule also returned a Triglyceride in data set [2] of 137.

Regarding `O=C1C(=O)c2ccccc2C2=C1CCO2` [Compound 6], the AMPK fold with AMPK stood at 2.2 fold.

For the molecule `O=C1C(=O)c2ccccc2C2=C1CCC(c1ccccc1)O2` (stereo not drawn) [Compound 7], the AMPK fold with AMPK was determined as 2.2 fold.

For `CC1OC2=C(C(=O)C(=O)c3ccccc32)C1c1ccccc1` (stereo not drawn) [Compound 8], the AMPK fold in the data set on AMPK was found to be 1.9 fold.

In the data set with AMPK, `C=C1OC2=C(C(=O)C(=O)c3ccccc32)C1(C)C` [Compound 9] displayed an AMPK fold of 2.6 fold.

Consider `COC1(C)OC2=C(C(=O)C(=O)c3ccccc32)C1(C)C` (stereo not drawn) [Compound 10], for which the AMPK fold with AMPK is reported as 1.6 fold.

The molecule `CC1(C)C=CC2=C(O1)c1ccccc1C(=O)C2=O` [Compound 11] showed an AMPK fold in the data set with AMPK of 1.3 fold.

In the case of `C=CC1(C)CCC2=C(O1)c1ccccc1C(=O)C2=O` (stereo not drawn) [Compound 12], the AMPK fold with AMPK came to 2.1 fold. The visually observable symptoms result in the data set with Sprague-Dawley rats [3] and with Sprague-Dawley rats [4] was “no visually observable symptoms with exception of weight loss” each time.

Consider `CC(C)=CC1(C)CCC2=C(O1)c1ccccc1C(=O)C2=O` (stereo not drawn) [Compound 13], for which the AMPK fold in the data set on AMPK stood at 2.3 fold. Further, the visually observable symptoms entry in the data set with Sprague-Dawley rats [3] and in the data set with Sprague-Dawley rats [4] was “no visually observable symptoms with exception of weight loss” throughout.

Consider `C[C@H]1OC2=C(C(=O)C(=O)c3ccccc32)[C@@H]1C` [Compound 16], for which, in the data set with AMPK, the AMPK fold turned out to be 2.5 fold. Also, the visually observable symptoms result with Sprague-Dawley rats [3] and in the data set with Sprague-Dawley rats [4] was “no visually observable symptoms with exception of weight loss” in each case.

`CC1CCC2=C(O1)c1ccccc1C(=O)C2=O` (stereo not drawn) [Compound 18] returned an AMPK fold in the data set with AMPK of 2.3 fold.

In the data set with AMPK, `CCC1CC2=C(O1)c1ccccc1C(=O)C2=O` (stereo not drawn) [Compound 19] gave an AMPK fold of 2.1 fold.

`CC1(C)CCCC2(C)OC3=C(CC12)C(=O)C(=O)c1ccccc13` (stereo not drawn) [Compound 20] displayed an AMPK fold in the data set with AMPK of 2.3 fold.

Turning to `CC1(C)CCC2=C(O1)c1cc(Cl)ccc1C(=O)C2=O` [Compound 21], the AMPK fold in the data set on AMPK worked out at 2.2 fold. In data set [1], the “Final BW” value is listed as 41.1 g and the change in vivo at 100 mg/kg is -28.3%. For the same molecule, in data set [2], the Cholesterol was 127, the GOT is listed as 46, the GPT is given as 39 and the Glucose was 127. The molecule further displayed a Triglyceride in data set [2] of 138.

The molecule `Cc1ccc2c(c1)C1=C(CCC(C)(C)O1)C(=O)C2=O` [Compound 22] gave an AMPK fold in the data set on AMPK of 1.9 fold. Also, in data set [1], the “Final BW” value is on record as 48.7 g and the change in vivo at 100 mg/kg was -16.5%. In data set [2], this molecule gave a Cholesterol of 132, a GOT of 57, a GPT of 49 and a Glucose of 142. The molecule further displayed a Triglyceride in data set [2] of 168.

As for `O=C1C(=O)c2ccccc2C2=C1CCC1(CCCCC1)O2` [Compound 27], the AMPK fold with AMPK stood at 1.7 fold.

In the data set on AMPK, `O=C1C(=O)c2ccccc2C2=C1CCC1(CCCC1)O2` [Compound 28] displayed an AMPK fold of 1.7 fold.

Turning to `Cc1cc2c(o1)-c1ccccc1C(=O)C2=O` [Compound 29], the AMPK fold in the data set on AMPK is on record as 1.3 fold.

In the case of `Cc1coc2c1C(=O)C(=O)c1ccccc1-2` [Compound 30], the AMPK fold in the data set on AMPK is reported as 1.2 fold.

The molecule `Cc1ccc2c(c1)C(=O)C(=O)c1c(C)coc1-2` [Compound 31] registered an AMPK fold in the data set with AMPK of 1.2 fold.

In the data set with AMPK, `Cc1ccc2c(c1)-c1occ(C)c1C(=O)C2=O` [Compound 32] registered an AMPK fold of 1.3 fold.
